Data published in US20020001582A1, “Methods and compositions for inhibiting microbial growth” (priority 1999, published 2002).

Legend:
[1] = test system: Sclerotinia homoeocarpa; test: Inhibition of Sclerotinia homoeocarpa in potato dextrose broth (area of growth); assay type: cell-based; details: 2 weeks after the inoculation
Method: Potato dextrose broth was prepared. Fifty ml of the PD broth was added into 100 ml dilution bottles, autoclaved and cooled to room temperature. Various amounts of lysozyme, chitosan, polylysine and avidin were weighed into the bottles. Ten ml of the PD broth with or without the antimicrobials was transferred into sterile petri dishes. A plug of Sclerotinia homoeocarpa (about 6-10 mm square) grown on PD agar was placed into the center of each petri dish. These treatments were all done in triplicates. Fungal growth was monitored by measuring the area of the growth.

[2] = test system: Pythium torrulesum (IM193); test: Inhibition of Pythium by lysozyme in PD broth, % plate coverage; assay type: cell-based; details: for fungal coverage of the plates: end of 2 weeks
Method: (§1) Potato dextrose broth was prepared, poured into glass dilution bottles (100 ml each), autoclaved and allowed to cool. […] A fungal square (plug) of each culture was cut and placed in/near the center of each plate. Fungal growth was quantified by measuring the diameter of growth of each fungus while it was growing on the liquid media in each petri dish using a ruler. Each treatment was done in triplicate.
(§2) The experiment was repeated three times (three batches). The observation period for each batch was 2 weeks.
(§3) The fungal growth was expressed in % coverage of the petri dishes by the fungal patches. The calculation can be presented in the following equation:
(§4) Fungal growth (%)=(area of fungal patch/total plate area)×100

[3] = test system: Pythium sylvaticom (IM195); test: as above; assay type: cell-based
Method: as §1, §2, §3, §4

[4] = test system: Rhizoctonia solani (IM085); test: Minimum effective treatment concentration, fungal plug in 1/5 potato dextrose broth; assay type: cell-based
Method: (§5) Fungal cultures isolated from turfgrass were collected from different sources including B.C. Ministry of Agriculture, Fisheries and Food and ATCC.
(§6) ⅕ potato dextrose broth was prepared and autoclaved in Erlenmeyer flasks and allowed to cool. Different amounts of egg white lysozyme (Canadian Inovatech, Inc., B.C.) was weighed out and added directly into the flasks. Ten milliliters of broth was dispensed into sterile petri dishes.
(§7) A fungal square (“plug”) of each culture was cut and placed in/near the center of each plate. The petri dishes were then incubated at 22-25° C. During incubation, the petri dishes were evaluated individually by measuring the diameter of fungal growth.

[5] = test system: Gaeumannomyces graminis var.avenae (IM084); test: as above; assay type: cell-based
Method: as §5, §6, §7

[6] = test system: Curvularia (Poa) (IM094); test: as above; assay type: cell-based
Method: as §5, §6, §7

[7] = test system: Gaeumannomyces graminis 97-923 (IM100); test: as above; assay type: cell-based
Method: as §5, §6, §7

[8] = test system: Fusarium (IM095, Turfgrass isolate); test: as above; assay type: cell-based
Method: as §5, §6, §7

[9] = test system: Typhula incarnata (IM086); test: as above; assay type: cell-based
Method: as §5, §6, §7

[10] = test system: Gaeumannomyces graminis 97-923 (IM099); test: as above; assay type: cell-based
Method: as §5, §6, §7

[11] = test system: Sclerotinia homoeocarpa (IM088); test: as above; assay type: cell-based
Method: as §5, §6, §7

[12] = test system: Rhizoctonia spp. (IM079); test: as above; assay type: cell-based
Method: as §5, §6, §7

[13] = test system: S. homoeocarpa; test: Suppression of fungal disease on young bentgrass, greenhouse trial; assay type: in vivo
Method: (§8) Creeping bentgrass (Agrotis spp.) cv. Penncross was used as the host in the greenhouse trials. This species is widely used in golf greens and is easily managed under greenhouse conditions. Bentgrass was seeded in 6 cm diameter and 5 cm height pots (made from PVC pipes) containing steam sterilized river washed sand. A seeding rate of 0.1 g/pot was used to ensure rapid establishment of a uniform, dense stand. Throughout the experiment, the grass was regularly watered, fertilized and maintained at a cutting height approximately 2.0 cm above the soil surface.
(§9) Virulent isolates of test fungi were grown on a rye grain medium for approximately one week. This medium consisted of 50 g of rye grain, 1 g of CaCO3, and 75 ml of water. It was prepared in a 250 ml Erlenmeyer flask and autoclaved for 30 minutes. Three to five plugs of the actively growing mycelia from week old cultures on potato dextrose agar were transferred into flasks, and incubated in the dark at room temperature.
(§10) Pots of eight-week-old bentgrass were inoculated with the test fungi by placing 2-3 kernels of infected rye in the center of the grass area, just above the soil surface. After inoculation, pots were placed in humidity chambers on a greenhouse bench. Temperature during incubation was maintained at 27-30° C. for disease development and the growth of the test fungi.
(§11) Approximately 1.6-2.4 ml was applied to each pot and the treatment was repeated 24 hours later. Untreated bentgrass was used as a control. All treatments were replicated 8 times and arranged in a completely randomized design. This trial was repeated three times.

[14] = test system: G. graminis; test: as above; assay type: in vivo; details: 5,000 and 10,000 ppm
Method: as §8, §9, §10, §11

[15] = test system: IM114 (Monilinia); test: Inhibition of Monilinia by lysozyme in PD broth, % plate coverage; assay type: cell-based
Method: as §1, with “Monilinia was grown in petri dishes on PD agar. Potato” for “Potato”, “with triplicates. The experiment was repeated three times (three batches). The observation period for each batch was 2 weeks.” for “in triplicate.”
(§12) The fungal growth was expressed in % coverage of the petri dishes by the fungal patches. The calculation is presented in the following equation:
as §4
(§13) The average plate coverage for the treatments was plotted against the time after inoculation (FIGS. 20 and 21). Statistical analysis was carried out using SigmaStat (Version 2.0, SPSS Science, 1997).

[16] = test system: IM115 (Monilinia); test: as above; assay type: cell-based
Method: as §1, with “Monilinia was grown in petri dishes on PD agar. Potato” for “Potato”, “with triplicates. The experiment was repeated three times (three batches). The observation period for each batch was 2 weeks.” for “in triplicate.”
as §12, §4, §13

lysozyme: type c egg white lysozyme, enzyme of approximately 129 amino acids; commercially available from Canadian Inovatech, Inc.
reduction of fungal growth ([1]; 1000 ppm): 35%
reduction of fungal growth ([1]; 2000 ppm): about 55%
fungal coverage of the plates ([2]; 50 ppm): 80%
fungal coverage of the plates ([2]; 100 ppm): 80%
fungal growth compared with 100, 50 or 0 ppm (Tukey test) ([2]; 250, 500 or 1000 ppm, p<0.05): significantly lower
fungal coverage of the plates ([2]; 250 ppm): 51%
fungal coverage of the plates ([2]; 500 ppm): 25%
fungal coverage of the plates ([2]; 1000 ppm): 14%
fungal growth (% plate coverage) ([3]; 50 ppm): 86%
fungal growth (% plate coverage) ([3]; 100 ppm): 51%
fungal growth compared with 100, 50 or 0 ppm (Tukey test) ([3]; 250, 500 or 1000 ppm, p<0.05): significantly lower
fungal growth (% plate coverage) ([3]; 250 ppm): 15%
fungal growth (% plate coverage) ([3]; 500 ppm): 7%
fungal growth (% plate coverage) ([3]; 1000 ppm): 6%
Comment ([4]; 250 ppm, 13 day): Fair-good
Minimum effective treatment concentration of lysozyme ([4]; duration of trial 13 day): 250 ppm
Comment ([5]; 500 ppm, 13 day): Excellent
Minimum effective treatment concentration of lysozyme ([5]; duration of trial 13 day): 500 ppm
Comment ([6]; 1000 ppm, 21 day): Fair-good
Minimum effective treatment concentration of lysozyme ([6]; duration of trial 21 day): 1000 ppm
Comment ([7]; 1000 ppm, 21 day): Excellent
Minimum effective treatment concentration of lysozyme ([7]; duration of trial 21 day): 1000 ppm
Comment ([8]; 250 ppm, 25 day): Excellent
Minimum effective treatment concentration of lysozyme ([8]; duration of trial 25 day): 250 ppm
Comment ([9]; 1000 ppm, 21 day): Excellent
Minimum effective treatment concentration of lysozyme ([9]; duration of trial 21 day): 1000 ppm
Comment ([10]; 1000 ppm, 21 day): Excellent
Minimum effective treatment concentration of lysozyme ([10]; duration of trial 21 day): 1000 ppm
Comment ([11]; 1000 ppm, 21 day): Fair-good
Minimum effective treatment concentration of lysozyme ([11]; duration of trial 21 day): 1000 ppm
Comment ([12]; 150 ppm, 38 day): Excellent
Minimum effective treatment concentration of lysozyme ([12]; duration of trial 38 day): 150 ppm
S. homoeocarpa inhibition compared to the untreated control ([13]; 2,500, 5,000 and 10,000 ppm sprayed 24 and 48 h after inoculation, day 7, 14 and 21): significant S. homoeocarpa inhibition
infection compared with bentgrass treated with 2,500 ppm ([13]; 5,000 and 10,000 ppm, day 14 and 21 after inoculation): significantly less infection
control against G. graminis [14]: good control
concentration that can significantly inhibit the growth for at least 2 weeks ([15]; in general, in vitro, PD broth): 250-500 ppm
concentration showing significant fungal growth reduction ([15]; p<0.05): 100 ppm
concentration that can significantly inhibit the growth for at least 2 weeks ([16]; in general, in vitro, PD broth): 250-500 ppm
concentration showing significant fungal growth reduction ([16]; p<0.05): 100 ppm
